Where two headings read alike, the source gives them in different places.
How the values were obtained:
Format in all cases: biochemical
full-length WRN helicase [1] = target: T1, full-length WRN helicase (Homo sapiens, UniProt Q14191); experiment: Radiometric helicase inhibitor assay, full-length WRN unwinding of FORKR DNA substrate; details: for remaining activity at 50 µM: read-out: % Control WRN Helicase Activity; for IC50: radiometric assay, compound 0-100 μM, read-out: IC50;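 for all read-outs here: WRN preincubated with compound 15 min at room temperature, then unwinding run 15 min at 37 °C with 2 mM ATP, relative to WRN unwinding without compound (100%)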
T1 construct: Full length recombinant WRN [18], BLM [19], and FANCJ [20] proteins were purified from insect cells; made in house; host or cells: insect cells
Method: Fifteen μL of reaction buffer was added to a microcentrifuge tube followed by the addition of 1 μL of selected compounds (0.5–100 μM final concentration) or DMSO. One μL of WRN (full length), RECQ1, FANCJ, BLM or control was added to each reaction and incubated at room temperature for 15 min. Three μL of substrate (0.5 nM FORKR and 2 mM ATP final concentrations) were added to all reactions which were incubated at 37°C for 15 min. Reactions were stopped with the addition of 20 μL of 2X STOP dye containing EDTA, glycerol, bromphenol blue and xylene cyanol. Samples were electrophoresed for 1.5 hr at 200 V on a 12% non-denaturing PAGE gel in 1X TBE Buffer.
The compounds were tested at a single concentration of 50 μM in the radiometric helicase assay with full-length recombinant WRN protein (1 nM) and the FORKR DNA substrate (0.5 nM) as described in the Materials and Methods section.
For each compound, we performed titrations over a wide range of concentrations with a fixed concentration of full-length WRN protein (1 nM), and quantitated unwinding as a percentage of full-length WRN unwinding of the FORKR DNA substrate (0.5 nM) in the absence of compound (Fig 6A and 6B, S3 Fig). […] In addition to determining an IC50 value for each compound, we also conducted helicase assays to determine the reversibility of inhibition by each compound tested. […] The reaction was diluted 100-fold with the addition of DNA substrate (0.5 nM final concentration) and ATP (2 mM final concentration) and unwinding was measured (Fig 7A–7D, S4 Fig). Inhibition was either classified as reversible, partially reversible, minimally reversible, or irreversible based on the ability of helicase activity to recover after dilution of the compound 100-fold.

full-length WRN helicase [2] = target: T1, full-length WRN helicase; experiment: Radiometric helicase inhibitor reversibility assay (100-fold dilution); set-up: key to Reversibility: (-) = irreversible; (+) = minimally reversible; (++) = partially reversible; (+++) = reversible; details: for Reversibility: WRN 100 nM preincubated at 10-fold IC50, diluted 100-fold, unwinding 0-16 min; for Reversibility of inhibition (in words): full-length WRN
Method: WRN (full length, 100 nM concentration) was incubated with each small molecule inhibitor at a concentration 10-fold higher than the IC50 for that inhibitor, in a 10 μL reaction at room temperature. 1.5 μL of this reaction was added to 148.5 μL of reaction salts with 2 mM ATP, 0.5 nM FORKR reducing the full length WRN concentration to 1 nM and the drug concentration to 10-fold less than its IC50. Reactions were placed at 37°C and 20 μL of reaction were removed at specific intervals (0–16 min) and quenched with 20 μL of 2X STOP dye containing EDTA, glycerol, bromphenol blue and xylene cyanol. Samples were electrophoresed for 1.5 hr at 200 V on a 12% non-denaturing PAGE gel in 1X TBE Buffer.
Eighteen compounds were selected based on potency of inhibition in both the screening and radiometric assays, and exclusion of compounds with undesired chemical features. For each compound, we performed titrations over a wide range of concentrations with a fixed concentration of full-length WRN protein (1 nM), and quantitated unwinding as a percentage of full-length WRN unwinding of the FORKR DNA substrate (0.5 nM) in the absence of compound (Fig 6A and 6B, S3 Fig). […] In addition to determining an IC50 value for each compound, we also conducted helicase assays to determine the reversibility of inhibition by each compound tested. Details of the assay can be found in the Materials and Methods section, but briefly 100 nM WRN was incubated with each compound at a concentration 10-fold higher than its IC50 value. The reaction was diluted 100-fold with the addition of DNA substrate (0.5 nM final concentration) and ATP (2 mM final concentration) and unwinding was measured (Fig 7A–7D, S4 Fig). Inhibition was either classified as reversible, partially reversible, minimally reversible, or irreversible based on the ability of helicase activity to recover after dilution of the compound 100-fold. Table 2 summarizes the IC50 values and reversibility for each compound and includes IC50 values obtained from the screens for comparison.

[3] = target: T2, GST-WRN500-946 helicase domain fragment (Homo sapiens, UniProt Q14191); experiment: Confirmatory fluorometric helicase screen, PubChem AID 720497; details: 20 nM GST-WRN500-946, 100 nM FORKF, NA = Not Active, read-out: IC50 (μM) Assay ID 720497
T2 construct: made in house; host or cells: insect cells
Method: (§1) The structures of the members of this collection are available in the PubChem portal https://pubchem.ncbi.nlm.nih.gov/. For both the 350,000 small molecule collection and the LOPAC^1280 screens, 3 μL of GST-WRN500-946 or reaction buffer only were dispensed using a solenoid-valve nanoliter dispenser into a black 1536-well plate (Greiner). Twenty three nL of each serially diluted compound (0.08–50 μM for the LOPAC screen and 0.003–114 μM for the larger library screen) or control were added to each well using a Kalypsys pintool equipped with a 1536-pin array. Plates were incubated at room temperature for 15 min, followed by initiation of the reactions via the addition of 1 μL of substrate (100 nM FORKF and 2 mM ATP final concentrations). Plates were transferred to a ViewLux high-throughput CCD imager and fluorescence was measured in kinetic mode using an excitation filter of 525 nm and emission filter of 598 nm.
(§2) Zʹ factor, a measure for assay quality control was calculated using the formula Z′ = 1−(3σS^++3σS^−)∕|μS^+−μS^−| as described previously. In this formula, 3σS^+ represents 3 standard deviations from the mean of positive signals while 3σS^− represents 3 standard deviations from the mean of negative signals. μS^+ and μS^− represent the mean of positive signals and negative signals respectively. Percent activity was derived using in-house software (http://tripod.nih.gov/curvefit/). Dose-response curves were classified as described previously.
(§3) A collection of approximately 350,000 compounds is available for screening which has been assembled from multiple sources to provide diverse chemical scaffolds with known purity, identity and solubility. To perform the high-throughput screen of these compounds, we needed to produce approximately 50 milligrams of recombinant WRN helicase fragment. To accomplish this, we cloned the helicase domain fragment into several plasmids for either insect cell or bacterial expression to optimize expression and yield. We selected expression plasmids for insect cell expression with either a GST or MBP tag (image A in S1 Fig) and purified the protein (image B in S1 Fig). The GST-WRN500-946 fragment isolated from insect cells was used in the high throughput screen with the conditions described in Fig 2C (20 nM GST-WRN500-946, 100 nM FORKF DNA substrate) and a summary of the results can be found on PubChem (National Center for Biotechnology Information. PubChem BioAssay Database; Assay Identifier (AID) = 651768, https://pubchem.ncbi.nlm.nih.gov/bioassay/651768). […] To verify the active compounds, approximately 600 hit molecules were retested in a confirmatory screen also found on PubChem (National Center for Biotechnology Information. PubChem AID = 720497, https://pubchem.ncbi.nlm.nih.gov/bioassay/720497). Of these, a little less than four hundred compounds were confirmed as active compounds.

[4] = target: T2, GST-WRN500-946 helicase domain fragment; experiment: High-throughput fluorometric helicase screen, PubChem AID 651768; details: initial qHTS; 20 nM GST-WRN500-946; 100 nM FORKF; NA = Not Active; read-out: IC50 (μM) Assay ID 651768
Method: as §1, §2, §3

[5] = target: T3, WRN helicase domain fragment (Homo sapiens, UniProt Q14191); experiment: WRN-hel-f2 protocol qHTS confirmatory (15 compound confirmatory assay); details: NA = Not Active
T3 construct: GST (N); made in house
Method: as §1

[6] = 50 μM compound, full-length WRN 1 nM, FORKR 0.5 nM
[7] = full-length WRN 1 nM, FORKR 0.5 nM

T2 sequence (Q14191 500-946): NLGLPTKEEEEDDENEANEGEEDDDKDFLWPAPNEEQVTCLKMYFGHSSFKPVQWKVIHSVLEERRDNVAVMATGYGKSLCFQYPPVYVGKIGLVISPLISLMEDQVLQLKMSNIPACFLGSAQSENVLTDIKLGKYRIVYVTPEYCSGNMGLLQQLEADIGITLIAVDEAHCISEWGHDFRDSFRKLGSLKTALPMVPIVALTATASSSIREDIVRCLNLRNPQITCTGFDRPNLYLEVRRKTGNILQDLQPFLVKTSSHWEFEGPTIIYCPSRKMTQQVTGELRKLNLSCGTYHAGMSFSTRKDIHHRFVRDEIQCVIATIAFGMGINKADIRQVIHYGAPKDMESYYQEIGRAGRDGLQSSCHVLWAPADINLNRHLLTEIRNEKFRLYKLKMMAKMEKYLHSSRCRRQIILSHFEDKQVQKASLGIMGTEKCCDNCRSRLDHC
T3 sequence (Q14191 500-946): as above
T1 sequence (Q14191 whole entry): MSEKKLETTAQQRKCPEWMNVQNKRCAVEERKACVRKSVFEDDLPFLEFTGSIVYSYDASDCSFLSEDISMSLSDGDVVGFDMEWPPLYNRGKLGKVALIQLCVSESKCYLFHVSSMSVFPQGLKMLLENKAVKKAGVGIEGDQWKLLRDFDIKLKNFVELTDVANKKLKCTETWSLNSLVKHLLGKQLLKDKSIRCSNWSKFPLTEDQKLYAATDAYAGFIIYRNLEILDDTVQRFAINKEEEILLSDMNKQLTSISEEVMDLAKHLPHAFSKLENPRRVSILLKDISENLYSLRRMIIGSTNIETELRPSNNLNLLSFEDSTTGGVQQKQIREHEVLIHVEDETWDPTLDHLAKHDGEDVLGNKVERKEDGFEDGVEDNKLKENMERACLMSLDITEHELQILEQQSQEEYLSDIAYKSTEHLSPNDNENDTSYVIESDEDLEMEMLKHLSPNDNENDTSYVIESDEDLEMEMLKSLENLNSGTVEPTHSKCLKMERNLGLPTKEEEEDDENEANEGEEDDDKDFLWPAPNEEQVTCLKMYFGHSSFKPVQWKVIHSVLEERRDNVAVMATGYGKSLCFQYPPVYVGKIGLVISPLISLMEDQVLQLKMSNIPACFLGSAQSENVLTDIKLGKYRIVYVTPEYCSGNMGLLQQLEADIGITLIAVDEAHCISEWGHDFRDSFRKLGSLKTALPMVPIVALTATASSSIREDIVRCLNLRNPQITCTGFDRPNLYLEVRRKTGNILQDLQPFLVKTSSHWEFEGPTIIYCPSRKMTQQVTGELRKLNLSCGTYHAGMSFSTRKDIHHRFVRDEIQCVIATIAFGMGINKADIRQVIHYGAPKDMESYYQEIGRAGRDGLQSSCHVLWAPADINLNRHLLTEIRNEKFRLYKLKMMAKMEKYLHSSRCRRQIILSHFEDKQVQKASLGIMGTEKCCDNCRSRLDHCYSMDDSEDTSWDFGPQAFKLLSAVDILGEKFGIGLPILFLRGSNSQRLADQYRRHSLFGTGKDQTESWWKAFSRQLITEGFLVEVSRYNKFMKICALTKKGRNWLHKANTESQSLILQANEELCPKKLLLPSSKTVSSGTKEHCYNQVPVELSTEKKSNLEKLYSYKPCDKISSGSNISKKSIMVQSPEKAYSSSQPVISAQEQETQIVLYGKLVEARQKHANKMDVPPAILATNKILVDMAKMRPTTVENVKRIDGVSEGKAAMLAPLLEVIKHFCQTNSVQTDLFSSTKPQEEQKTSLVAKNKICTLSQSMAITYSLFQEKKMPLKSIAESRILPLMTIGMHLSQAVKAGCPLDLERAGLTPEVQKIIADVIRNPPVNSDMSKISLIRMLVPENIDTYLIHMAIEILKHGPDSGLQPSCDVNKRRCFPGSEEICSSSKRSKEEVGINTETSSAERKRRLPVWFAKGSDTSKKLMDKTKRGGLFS

Compound	remaining activity at 50 µM (full-length WRN helicase [1]; [6]) [%]	Reversibility (full-length WRN helicase [2])	IC50 (full-length WRN helicase [1]; [7]) [µM]	IC50 [3] [µM]	IC50 [4] [µM]	IC50 [5] [µM]	remaining activity at 50 µM (full-length WRN helicase [1]) [%]	Reversibility of inhibition (in words) (full-length WRN helicase [2])
Cc1nn(-c2ccccc2)c2nc(-c3ccco3)cc(C(=O)O)c12 [MLS000060726-02]	100							
O=c1[nH]c2ccccc2n2c(-c3ccccc3)nnc12 [MLS000540817-03]	99							
Oc1ccc(C2=CSc3nnc(-c4ccco4)n3N2)cc1O [MLS000551562-03]	92							
Cc1cc(OCC(=O)Nc2ccc(N3CCN(C(=O)c4ccco4)CC3)cc2)cc(C)c1Cl [MLS000582679-02]	64							
O=C(O)c1ccccc1-c1ccc(/C=C/c2cc(C(F)(F)F)nc(O)n2)o1 [MLS000715904-02]	76							
O=C(c1cccc(-n2cccc2)c1)N1CCN(S(=O)(=O)c2ccccc2)CC1 [MLS001139594-03]	4	-	10	4.3	4.7	0.35		
Cc1ccc(CN(C)C(=O)CCc2nc(O)c3c4c(sc3n2)CCCC4)o1 [MLS001160745-02]	8	+	11	9.6	44.6	22.4		
Cc1ccc(C)c(NC(=O)CN(C)C(=O)c2cccc(-n3cccc3)c2)c1 [MLS001161412-02]	5							
CCc1nnc(NC(=O)c2cc(-c3ccc(C)o3)nc3ccccc23)s1 [MLS002179845-02]	93							
O=C(Nc1nncs1)c1cc(-c2ccco2)nc2ccccc12 [MLS002249549-02]	69							
COc1ccccc1Nc1ccc2c(O)cc(S(=O)(=O)O)cc2c1 [MLS002608028-02]	3	+++	2	6.1	2.7	0.35		
CN(C)CC(C(=O)Cc1ccccc1)c1ccccc1 (centres unmarked) [MLS002608145-02]							93	
Oc1c(C(c2ccccc2)N2CCOCC2)ccc2ccccc12 (centres unmarked) [MLS002694128-02]	0							
CCCN(CCC)CCCNC(=O)c1cc2c(-c3ccc(OC)c(OC)c3)nn(C)c2s1 [NCGC00108865-03]	109							
COC(=O)c1cc(NC(=O)c2ccc3c(c2)NC(=O)c2ccccc2S3)cc(C(=O)OC)c1 [NCGC00113056-02]	10	+	2	13.6	16.8	1.26		
Cc1cc(OC(C)C(=O)Nc2cccc(-c3nc4ccccc4o3)c2)cc(C)c1Cl (centres unmarked) [NCGC00119189-02]	65							

Compound	remaining activity at 50 µM (full-length WRN helicase [1]; [6]) [%]	Reversibility (full-length WRN helicase [2])	IC50 (full-length WRN helicase [1]; [7]) [µM]	IC50 [3] [µM]	IC50 [4] [µM]	IC50 [5] [µM]	remaining activity at 50 µM (full-length WRN helicase [1]) [%]	Reversibility of inhibition (in words) (full-length WRN helicase [2])
Cc1ccc(C(=O)Nc2nnc([S+](=O)([O-])N(C)Cc3ccco3)s2)cc1 [NCGC00120906-02]		-	9		37.6	5.6	33	irreversible
CN(Cc1ccco1)[S+](=O)([O-])c1nnc(NC(=O)c2cccc(Cl)c2)s1 [NCGC00120928-02]	13	-	15		39.8	12.5		irreversible
CCc1ccc(NC(=O)c2ccc3c(O)c([S+](=O)([O-])c4ccc(Cl)cc4)c(=O)[nH]c3c2)cc1 [NCGC00123016-02]		+++	50		26.6	39.8	20	
CC(C)(C)c1ccc(-c2nc(SCCCOc3ccccc3)n3[nH]c(=O)cc3n2)cc1 [NCGC00128735-02]	5	+++	5		50.1	28.1		
CCOc1ccc(-c2nc(SCC(=O)Nc3ccc(C)c(C)c3)n3[nH]c(=O)cc3n2)cc1 [NCGC00128865-02]	20	++	10	15.2	21.1	1.8		
Cc1ccc(-c2nc(SCc3ccc(Br)cc3)n3[nH]c(=O)cc3n2)cc1 [NCGC00129037-02]	7	-	9	13.6	16.8	12.5		
CC1=C(C(=O)Nc2ccccc2)C(c2ccc[nH]2)n2ncnc2N1 (centres unmarked) [NCGC00132363-04]	30	-	25	7.6	11.9			
COc1ccccc1N1CCN(C(=O)Cc2c(C(=O)O)c(C)cn2C)CC1 [NCGC00137902-02]	113							
Cc1cn(C)c(CC(=O)N2CCN(c3ccccc3F)CC2)c1C(=O)O [NCGC00137904-02]	108							
COc1ccc(N2CCN(C(=O)Cc3c(C(=O)O)c(C)cn3C)CC2)cc1 [NCGC00137930-02]	99							
O=c1cc(N2CCNCC2)nc2sc(-c3ccncc3)nn12 [NCGC00183602-01]	0	-	5	6.1	7.5	6		
Cc1ccc(N2CCN(c3cnn(-c4nc5ccccc5s4)c(=O)c3Cl)CC2C)cc1 (centres unmarked) [NCGC00295201-02]	9	+++	10		35.4	25.1		
COc1ccc2nc(O)c(-c3noc(-c4cccs4)n3)cc2c1 [NCGC00307457-02]	42							
COc1ccc(-c2cc(C(F)(F)F)nc([S+](=O)([O-])CCC(=O)Nc3ccc(C)cc3)n2)cc1 [NCGC00317517-02]							93	
COc1ccc(N[S+](=O)([O-])c2cc(C(=O)Nc3ccc4nc(C)sc4c3)ccc2C)cc1 [NCGC00348187-01]							83	
